In patent publication EP1159267B1, “N-SUBSTITUTED INDOLINES AS ESTROGENIC AGENTS” (Wyeth, priority 1999, dated 2000):
Structures can show the parent of a compound that is named as a salt.

The molecules below were run against T1, estrogen receptor (ER) (Homo sapiens, UniProt P03372) (assay: Receptor Binding Assay (competition with [3H]17β-estradiol)). Details: cytosol of CHO cells overexpressing the estrogen receptor; 0.8 nM [3H]17β-estradiol; 12 competitor concentrations; room temperature, 2.5 h.
T1 construct: expressed in transfected cells; host or cells: CHO cells (ribosome-free cytosol)
T1 sequence (P03372 1-595): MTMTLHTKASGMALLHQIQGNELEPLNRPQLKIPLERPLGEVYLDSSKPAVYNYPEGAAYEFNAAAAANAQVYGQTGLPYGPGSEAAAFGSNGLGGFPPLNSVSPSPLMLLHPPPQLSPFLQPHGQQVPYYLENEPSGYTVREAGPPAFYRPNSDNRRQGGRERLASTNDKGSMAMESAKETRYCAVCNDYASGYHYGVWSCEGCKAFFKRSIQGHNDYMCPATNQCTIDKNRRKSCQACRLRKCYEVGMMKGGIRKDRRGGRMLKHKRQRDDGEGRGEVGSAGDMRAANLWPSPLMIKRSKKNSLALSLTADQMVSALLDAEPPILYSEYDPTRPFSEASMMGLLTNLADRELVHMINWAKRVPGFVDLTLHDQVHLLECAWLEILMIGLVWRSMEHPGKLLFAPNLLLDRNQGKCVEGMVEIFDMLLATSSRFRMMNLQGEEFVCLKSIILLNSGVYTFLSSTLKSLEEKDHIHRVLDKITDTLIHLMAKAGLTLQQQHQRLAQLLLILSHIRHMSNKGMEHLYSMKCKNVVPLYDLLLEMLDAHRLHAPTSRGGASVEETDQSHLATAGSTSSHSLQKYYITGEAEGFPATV
With `CC1(C)c2cc(O)ccc2N(Cc2ccc(OCCN3CCCCC3)cc2)C1c1ccccc1` (stereo not shown) [Example No. 4, 3,3-dimethyl-2-phenyl-1-[4-(2-piperidin-1-yl-ethoxy)-benzyl]-2,3-dihydro-1H-indol-5-ol (HCl)] the IC50 was 800 nM. With `CC1(C)c2cc(O)ccc2N(Cc2ccc(OCCN3CCCCCC3)cc2)C1c1ccccc1` (stereo not shown) [Example No. 6, 1-[4-(2-Azepan-1-yl-ethoxy)-benzyl]-3,3-dimethyl-2-phenyl-2,3-dihydro-1H-indol-5-ol] the IC50 was 1000 nM. Molecule `CC1(C)c2cc(O)ccc2N(Cc2ccc(OCCN3CCCCC3)cc2)C1c1ccc(O)cc1` (stereo not shown) [Example No. 9, 2-(4-Hydroxy-phenyl)-3,3-dimethyl-1-[4-(2-piperidin-1-yl-ethoxy)-benzyl]-2,3-dihydro-1H-indol-5-ol] has an IC50 of 310 nM. `CC1(C)c2cc(O)ccc2N(Cc2ccc(OCCN3CCCCCC3)cc2)C1(c1ccccc1)c1ccc(O)cc1` (stereo not shown) [Example No. 11, 1-[4-(2-Azepan-1-yl-ethoxy)-benzyl]-2-(4-hydroxy-phenyl)-3,3-dimethyl-2-Phenyl-2,3-dihydro-1H-indol-5-ol] was tested, and the IC50 was 350 nM.
